Measured values published in patent EP0007398A1, “N-thio-N-methyl carbamic acid derivative, process for its preparation, its application and pesticides containing it” (priority 1978, dated 1980).
Read-outs that look alike come from different tables or passages of the source.

Legend:
[1] = system: Epilachna chrysomelina, Gurkenkäfer; test: Persistence test on treated pumpkin plants (7 days at 30°C with UV irradiation before infestation); type: in vivo; conditions: 168 h, wettable powder per Beispiel 2, 7 days 30°C + UV, then 10 first-instar larvae per plant, reduction of survival rate vs control, read-out: % Wirkung
Method: Testinsekt: Epilachna chrysomelina, Gurkenkäfer Testmethode: Persistenztest
(§1) Kürbispflanzen werden bis zum Abtropfen behandelt. Nach dem Antrocknen werden die Pflanzen in einem Ecophyten bei 30°C und UV-Bestrahlung während 7 Tagen inkubiert. Nach der Inkubation werden pro Pflanze 10 Larven des ersten Stadiums angesetzt. Die Resultate werden ausgedrückt als prozentuale Reduktion der Ueberlebensrate der Epilachna-Larven im Vergleich zu den Kontrollparzellen.
Die Formulierung der Wirkstoffe erfolgte gemäss Beispiel 2. ai = Wirkstoff

[2] = system: Leptinotarsa decemlineata, Kartoffelkäfer; test: Initial activity on potato leaf discs; type: in vivo; conditions: foliar, 96 h, read-out: % Wirkung
Method: Testinsekt: Leptinotarsa decemlineata, Kartoffelkäfer Testmethode: Initialwirkung auf Blattrondellen
Kartoffelblattrondellen werden mit acetonischer Wirk- stofflösung besprüht. Pro Rondelle werden 5 frischgeschlüpfte Larven des ersten Stadiums angesetzt und bei 25°C und 60% rel. Feuchtigkeit inkubiert. Unbehandelte und mit Aceton behandelte Blattrondellen dienen als Kontrolle. Testdauer: 4 Tage. Die Resultate werden ausgedrückt als prozentuale Reduktion der Ueberlebensrate der Larven im Vergleich zu den Kontrollparzellen.

[3] = system: Leptinotarsa decemlineata, Kartoffelkäfer; test: Persistence test on treated potato plants (7 days at 30°C with UV irradiation before infestation); type: in vivo; conditions: 168 h, wettable powder per Beispiel 2, 7 days 30°C + UV, then 10 first-instar larvae per plant, reduction of survival rate vs control, read-out: % Wirkung
Method: Testinsekt: Leptinotarsa decemlineata, Kartoffelkäfer Testmethode: Persistenztest
as §1, with “Kartoffelpflanzen” for “Kürbispflanzen”, “Leptinotarsa-Larven” for “Epilachna-Larven”
Die Formulierung der Wirkstoffe erfolgte gemäss Beispiel 2 ai = Wirkstoff

[4] = system: Aedes aegypti, Gelbfiebermücke; test: Initial activity in water against larvae; type: in vivo; conditions: 168 h
Method: Testinsekt: Aedes aegypti, Gelbfiebermücke Testmethode: Initialwirkung im Wasser
0,2 ml acetonische Wirkstofflösung werden mit 20 ml Leitungswasser gemischt. Pro Parzelle werden 10 Larven im letzten Larvenstadium angesetzt und bei 25°C und 60% rel. Feuchtigkeit inkubiert bis zum Schlüpfen der Adulten in den Kontrollparzellen. Unbehandeltc und mit Aceton behandelte Parzellen dienen als Kontrollen. Testdauer: 7 Tage. Die Wirkung wird ausgedrückt als prozentuale Reduktion der Zahl normaler Adulter im Vergleich zu den Kontrollparzellen.

[5] = UV stability; type: physicochemical; conditions: qualitative statement
[6] = Water solubility; type: physicochemical; conditions: qualitative statement
Description: Die Verbindung der Formel I ist wasserunlöslich und kann nach irgendeiner der für unlösliche Verbindungen üblichen Methoden konfektioniert werden.

[7] = Acute oral toxicity in the mouse; conditions: in vivo, Maus, read-out: akute orale Toxizität
Method: Die Verbindung wirkt als direktes Insektizid. Sie hat auch systemische Aktivität. Sie zeichnet sich unter Praxisbedingungen durch eine besonders günstige Wirkungsdauer aus. Die Verbindung ist ferner von Wert für die Bekämpfung von Schädlingen bei Tieren. So zeigt beispielsweise die Verbindung der Formel I in einer Konzentration von 10^-7 g/ml im Test gegen Aedes aegypti eine Wirkung von 100%. Die akute orale Toxizität an der Maus beträgt mehr als 1000 mg/kg.

| SMILES | mortality at 0.01 % ([1]; Konz. 0,01 % ai) [%] | mortality at 0.03 % ([1]; Konz. 0,03 % ai) [%] | mortality at 1e-07 g/cm2 ([2]; Dosis 10^-7 g ai/cm^2, acetone solution, first-instar larvae, 25°C, 60% rel. humidity, 4 days, reduction of survival rate vs control) [%] | mortality at 1e-08 g/cm2 ([2]; Dosis 10^-8 g ai/cm^2, acetone solution, first-instar larvae, 25°C, 60% rel. humidity, 4 days, reduction of survival rate vs control) [%] | mortality at 1e-09 g/cm2 ([2]; Dosis 10^-9 g ai/cm^2, acetone solution, first-instar larvae, 25°C, 60% rel. humidity, 4 days, reduction of survival rate vs control) [%] | mortality at 0.01 % ([3]; Konz. 0,01 % ai) [%] | mortality at 0.03 % ([3]; Konz. 0,03 % ai) [%] | mortality at 1 µg/mL ([4]; Dosis 10^-6 g ai/ml Wasser, last-instar larvae, 25°C, 7 days, reduction of number of normal adults vs control, read-out: % Wirkung) [%] | mortality at 0.1 µg/mL ([4]; Dosis 10^-7 g ai/ml Wasser, last-instar larvae, 25°C, 7 days, reduction of number of normal adults vs control, read-out: % Wirkung) [%] | mortality at 0.01 µg/mL ([4]; Dosis 10^-8 g ai/ml Wasser, last-instar larvae, 25°C, 7 days, reduction of number of normal adults vs control, read-out: % Wirkung) [%] | UV-Stabilität [5] | Wasserlöslichkeit [6] | mortality at 1e-09 g/cm2 [2] [%] | mortality at 1e-08 g/cm2 [2] [%] | mortality at 1e-07 g/cm2 [2] [%] | mortality at 0.01 µg/mL ([4]; read-out: % Wirkung) [%] | mortality at 0.1 µg/mL ([4]; read-out: % Wirkung) [%] | mortality at 1 µg/mL ([4]; read-out: % Wirkung) [%] | mortality at 0.1 µg/mL ([4]; read-out: Wirkung) [%] | LD50 [7] [mg/kg] |
| --- | --- | --- | --- | --- | --- | --- | --- | --- | --- | --- | --- | --- | --- | --- | --- | --- | --- | --- | --- | --- |
| CNC(=O)Oc1cccc2c1OC(C)(C)O2 [Formel II] | 30 | 100 | 100 | 8 | 0 | 5 | 95 | 100 | 2 | 0 | – | – | – | – | – | – | – | – | – | – |
| CN(SN(C)C(=O)Oc1cccc2c1OC(C)(C)O2)C(=O)Oc1cccc2c1OC(C)(C)O2 [Formel I, Bis-[2,3-(isopropylidendioxy)-phenyl]-thio-bis-N-methylcarbamat] | – | – | – | – | – | – | – | – | – | – | hohe UV-Stabilität | wasserunlöslich | 0 | 79 | 100 | 13 | 100 | 100 | 100 | > 1000 |
